Laboratory results reported in US20250282720A1, “ALKYLSULFENYL THIOCARBONATES: PRECURSORS TO HYDROPERSULFIDES POTENTLY ATTENUATE OXIDATIVE STRESS” (The Johns Hopkins University, priority 2021, published 2025).

Tests used:
[1] = test system: H9c2 cardiac myoblasts; experiment: H9c2 cell protection from H2O2-mediated oxidative stress, CCK-8; assay type: cell-based, rat; conditions: 50 μM, 4 and 8 h, then H2O2 200 μM
Description: The cytoprotective effects of 1a was then measured against oxidative stress.
(§2) H9c2 embryonic rat heart myoblasts were obtained from the American Type Culture Collection. Cells were grown in Dulbecco's minimal essential medium (DMEM), supplemented with fetal bovine serum (FBS) 10%, penicillin 100 U/mL and streptomycin 100 μg/mL. They were propagated in T75-flasks, split before reaching 70-80% confluence (usually every day or every second day), and used within 11 passages. Cells were passaged to tissue culture treated 96-well microtiter plates at the specified density in 180 μL volumes and incubated for 24 h.
Cells were seeded at a density of 5×10^3 cells/well. After 24 h, precursor 1a or by-product 4a was added at 20 μL volumes using DMSO:H2O (<0.01% DMSO as the vehicle). Cells were incubated for 2 h before media was removed and the cells gently washed with PBS (pH 7.4). Then, 180 μL of fresh media and 20 μL H2O2 diluted into H2O were added and cells were incubated for an additional 2 h. At the completion of H2O2 exposure, each well is carefully washed 3 times with PBS (pH 7.4) before adding 100 μL of media, without-FBS, containing 10% v/v CCK-8 (Dojindo) and incubated for 3 h prior to obtaining absorbance values at 450 nm. The relative % viability was calculated as 100 times the ratio of the Abs450 (pre-treated, H2O2-exposed) over Abs450 (vehicle-treated, non H2O2-exposed).

[2] = test system: FA skin fibroblasts (GM04078); experiment: Cytotoxicity in FA skin fibroblasts; conditions: 24 h of exposure, at least up to 100 μM
Excerpt: (§1) Initially, we measured the cytotoxicity of AST in FA skin fibroblasts (GM04078), obtained from the Coriell Institute, to ensure that the RSSH donor itself is not cytotoxic. […] We then measured the ability of AST to confer cytoprotection in FA fibroblasts against hydrogen peroxide (H2O2) stress.

[3] = test system: H9c2 cardiac myoblasts; experiment: Cytotoxicity study, Sytox Green viability assay; conditions: up to 100 mM, 24 h
Description: as §2
Cells were seeded at a density of 1×10^4 cells/well. After 24 h, the media was replaced and compound added in 20 μL volumes using DMSO:H2O (<0.01% DMSO) as the vehicle. Cells were incubated for an additional 24 h before media was removed. Then, 100 μL of media containing 3 μM Sytox Green nucleic acid stain (Invitrogen) was added and the cells were incubated for 2 h before fluorescence readings were obtained at 485Ex/538Em (Step 1). Finally, an additional 100 μL of media containing 3 μM Sytox and 0.2% Triton X-100 was added to permeabilize all cells and incubated for 1 h before fluorescence values measured (Step 2). The relative % cells surviving was calculated as a 100% minus the ratio of the fluorescence value of Step 1 over Step 2 (% cells surviving=100%−(FL538 (Step 1)/FL538 (Step 2)). See FIG. 8.

[4] = test system: FA fibroblasts (GM04078); experiment: Cytoprotection against H2O2 stress in FA fibroblasts, CCK8; assay type: cell-based, human; conditions: 4 h pretreatment, H2O2 75 μM for 4 h
Description: FIG. 10A, pretreatment of AST with varying concentrations in FA fibroblasts (GM04078, Coriell Institute) for 4 h followed by 4 h treatment with H2O2. Viability was measured using CCK8 assay. FIG. 10B, pretreatment of AST with varying concentrations in FA fibroblasts for 4 h followed by treatment with erastin for 24 h. […] Group comparisons are determined by a one-way analysis of variance (ANOVA) with Dunnet's correction post-hoc test using GraphPad Prism 8;
as §1

[5] = Decomposition of precursors in the presence of thiol (NAC / N-acetyl cysteine methyl ester), HPLC; assay type: physicochemical; conditions: 5 equiv NAC, PBS pH 7.4, HPLC
Description: Initially, the decomposition of 1a was analyzed in the presence of 5 equiv of N-acetylcysteine (NAC) in PBS (pH 7.4) by HPLC. […] To investigate the mechanism, this reaction was monitored by UPLC-MS. […] Additionally, a small amount of unsymmetrical dialkyl polysulfide (pink highlight, R^1SSnSR^2, n=0-3) is observed, likely formed via NAC reaction with symmetrical dialkyl polysulfides (Scheme 1-5, eq. 7). As expected, a new peak at 5.65 min corresponding to N-acetyl cysteine-thiocarbonate 9a also is observed, confirming thiol attack at the perthiocarbonate carbonyl carbon of 1a to release RSSH. Due to the unstable nature of RSSH under these experimental conditions, the yield of the by-product 9a was measured as an indication of RSSH yield. The observation of RSSH-derived polysulfides formation as major products led us to anticipate the efficient formation of by-product 9a. […] The lower observed yield of 9a is likely due to its further reaction with RSSH under these conditions. […]
To a solution of N-acetyl cysteine methyl ester (500 μM) in pH 7.4 phosphate buffer saline (100 mM) containing DTPA (100 μM), precursor 1a or 8 (100 μM) was added. […] At different time points, an aliquot of the reaction mixture (500 μL) was withdrawn and transferred to pre-cooled 0.1% formic acid (500 μL) and analyzed using HPLC. […]

| t1/2 of decomposition in the presence of thiol [5] | Compound | cytoprotection against H2O2-mediated toxicity (by-product control) [1] | toxicity toward FA fibroblasts [2] | toxicity toward H9c2 cells [3] | cytoprotection against H2O2 stress [4] |
| --- | --- | --- | --- | --- | --- |
| – | Oc1ccccc1 [Precursor 4a, phenol] | no protective effect | do not show toxicity | no toxicity | ineffective |
| 4.0 ± 0.7 min | COC(=O)C(NC(C)=O)C(C)(C)SSC(=O)OCc1ccccc1 (centres unmarked) [Precursor 8, Methyl 2-acetamido-3-(((benzyloxy)carbonyl)disulfaneyl)-3-methylbutanoate] | – | – | – | – |
